Where two headings read alike, the source gives them in different places.
What was measured:
[1] = test system: L. (L.) amazonensis promastigote forms; assay: Flow cytometry for mitochondrial membrane potential (TMRE); assay type: cell-based, Leishmania (Leishmania) amazonensis; details: for reduction in TMRE labeling (ΔΨm): treatment at IC50, relative to nontreated parasites
[2] = test system: L. (L.) amazonensis intracellular amastigotes; assay: In vitro antileishmanial activity on intracellular amastigotes in peritoneal macrophages; assay type: cell-based, Leishmania (Leishmania) amazonensis; details: for IC50: BALB/c peritoneal macrophages, 24 h, Giemsa count, read-out: L. amazonensis Intracellular Amastigotes (Ama.) IC50
Experimental: Peritoneal macrophages were obtained from BALB/c mice in RPMI 1640 culture medium (Sigma-Aldrich® São Paulo, Brazil). After exclusion of inviable cells with trypan blue staining (Sigma-Aldrich® São Paulo, Brazil), cells were transferred to 24-well plates with 13 mm round glass coverslips (10^6 cells/well) and kept at 37 °C/5% CO2. After adhesion for one hour, cells were infected with promastigote forms of L. (L.) amazonensis in the stationary phase (4 × 10^6 cells/well). After 4 h of incubation, samples (complexes 1–7) were added in six replicates (6.25–50.0 µg·mL^−1). […] Coverslips were removed after 24 h, subjected to a dehydration battery with increasing concentrations of acetone: xylol and stained with Giemsa (Sigma-Aldrich®, São Paulo, Brazil) diluted 1:10 in distilled water. After mounting on slides, 200 cells per coverslip were analyzed by light microscopy and the average number of amastigotes/cells was calculated. IC50 was determined using a non-linear dose–response regression curve as described above. The concentrations of complexes were compared by Two-way ANOVA followed by the Tukey test.

[3] = test system: L. (L.) amazonensis promastigote forms; assay: In vitro antileishmanial activity on promastigote forms (MTT); assay type: cell-based, Leishmania (Leishmania) amazonensis; details: 72 h
NIH/3T3 fibroblasts = assay: Cytotoxicity in mammalian cells (sulforhodamine B); assay type: cell-based; details: 48 h, read-out: Fibroblasts NIH/3T3 (Fib.) IC50
Experimental: The cytotoxic effect of compounds 1–7 was evaluated on NIH/3T3 fibroblasts obtained from the Rio de Janeiro Cell Bank (Duque de Caxias, Brazil). Fibroblasts were seeded at […] in 96-well plates. After 24 h of fixation, cells were incubated for 48 h with 1–7 at 2.5–250 µg·mL^−1, in three replicates. Cell growth was evaluated using the sulforhodamine B colorimetric method, and the optical with absorbances read on the PT-READER microplate instrument (Spectramax 190, Molecular Devices, Sunnyvale, CA, USA) at 540 nm. […] The growth inhibition percentage-GI (%) of each test sample was calculated in Microsoft Office Excel 2007 software. IC50 was determined graphically in the Microcal Origin Version 6.00 program. The selectivity index (SI) was calculated as the ratio between the cytotoxicity on cells (IC50) and the activity on the parasite forms (IC50).

[4] = test system: L. (L.) amazonensis promastigote forms; assay: Flow cytometry for apoptosis and membrane permeability (PE Annexin V / 7-AAD); assay type: cell-based, Leishmania (Leishmania) amazonensis; details: for 7-AAD-stained parasites / An. (PE Annexin V-stained parasites) / An./7-AAD (double stained parasites) / Unst. (unstained parasites): treatment at IC50
Description: PE Annexin V staining precedes the loss of membrane integrity observed in the final stages of cell death, resulting from either apoptotic or necrotic processes. PE Annexin V is used in conjunction with the vital dye 7-Amino-Actinomycin (7-AAD) to identify early apoptotic cells (7-AAD negative, PE Annexin V positive). Viable cells with intact membranes exclude 7-AAD, but the membranes of dead and damaged cells are permeable to 7-AAD. Cells that are in late apoptosis or already dead are both PE Annexin V and 7-AAD positive. […] Heat-killed parasites (60 °C bath/10 min) were used as positive control, and untreated parasites were used as negative control. Promastigotes were stained with 5 µL of PE Annexin V and 5 µL 7-AAD (PE Annexin V Apoptosis Detection Kit I, BD Biosciences^TM, Franklin Lakes, NJ, USA) and immediately subjected to flow cytometric analysis (BD FACSCanto^TM II). Then, 10,000 events were captured in the region previously determined to correspond to the parasites. Fluorescence was quantified and histograms were generated.

[5] = 48 h after treatment at the calculated IC50
[6] = 72 h after treatment at the calculated IC50
[7] = MTT, read-out: L. amazonensis Promastigotes (Pro.) IC50
[8] = Leishmania amazonensis, Peritoneal macrophage, in Mus musculus

Compound	TMRE-labeled promastigotes [1, 5] [%]	reduction in TMRE labeling (ΔΨm) ([1]; 72 h) [%]	TMRE-labeled promastigotes [1, 6] [%]	IC50 [2] [nM]	IC50 [3, 7] [nM]	IC50 (NIH/3T3 fibroblasts) [nM]	7-AAD-stained parasites ([4]; 24 h) [%]	An. (PE Annexin V-stained parasites) ([4]; 24 h) [%]	An./7-AAD (double stained parasites) ([4]; 24 h) [%]	Unst. (unstained parasites) ([4]; 24 h) [%]	7-AAD-stained parasites ([4]; 48 h) [%]	An. (PE Annexin V-stained parasites) ([4]; 48 h) [%]	An./7-AAD (double stained parasites) ([4]; 48 h) [%]	Unst. (unstained parasites) ([4]; 48 h) [%]	7-AAD-stained parasites ([4]; 72 h) [%]	An. (PE Annexin V-stained parasites) ([4]; 72 h) [%]	An./7-AAD (double stained parasites) ([4]; 72 h) [%]	Unst. (unstained parasites) ([4]; 72 h) [%]	other results
CC(=O)C1=C([O-])C=C2Oc3c(C(C)=O)c(O)c(C)c(O)c3C2(C)C1=O.CC(=O)C1=C([O-])C=C2Oc3c(C(C)=O)c(O)c(C)c(O)c3C2(C)C1=O.CC(=O)C1=C([O-])C=C2Oc3c(C(C)=O)c(O)c(C)c(O)c3C2(C)C1=O.O.O.O.[La+3] (stereo not drawn) [LaL3·3H2O 7]	76.0	22.3	82.0	4580	1490	10900	0.4	0.7	0.5	98.3	1.6	1.8	3.3	93.3	5.6	2.4	10.0	82.0	Intracellular amastigote activity, arbitrary scale ([2]; class by IC50): active
C[C@@H]1[C@H](O)[C@@H](C)/C=C/C=C/C=C/C=C/C=C/C=C/C=C/[C@H](O[C@@H]2O[C@H](C)[C@@H](O)[C@H](N)[C@@H]2O)C[C@@H]2O[C@](O)(C[C@@H](O)C[C@@H](O)[C@H](O)CC[C@@H](O)C[C@@H](O)CC(=O)O[C@H]1C)C[C@H](O)[C@H]2C(=O)O [Amphotericin B, reference compound]	–	–	–	–	–	–	–	–	–	–	–	–	–	–	–	–	–	–	IC50 [2, 8]: 198 nM; IC50 ([3]; Leishmania amazonensis, MTT, read-out: L. amazonensis Promastigotes (Pro.) IC50): 145 nM
CC(=O)C1=C([O-])C=C2Oc3c(C(C)=O)c(O)c(C)c(O)c3C2(C)C1=O.CC(=O)C1=C([O-])C=C2Oc3c(C(C)=O)c(O)c(C)c(O)c3C2(C)C1=O.CC(=O)C1=C([O-])C=C2Oc3c(C(C)=O)c(O)c(C)c(O)c3C2(C)C1=O.O.O.O.[Nd+3] (stereo not drawn) [NdL3·3H2O 5]	70.1	11.35	60.9	2830	910	19700	0.3	0.7	0.5	98.4	1.6	1.4	3.3	93.8	7.7	2.5	10.0	79.8	–
N=C(N)c1ccc(OCCCCCOc2ccc(C(=N)N)cc2)cc1 [Pentamidine, reference compound]	–	–	–	–	1490	–	–	–	–	–	–	–	–	–	–	–	–	–	IC50 [2, 8]: 920 nM; IC50 ([3]; Leishmania amazonensis, read-out: L. amazonensis Promastigotes (Pro.) IC50, 72 h, MTT): 1500 nM
CC(=O)C1=C([O-])C=C2Oc3c(C(C)=O)c(O)c(C)c(O)c3C2(C)C1=O.CC(=O)C1=C([O-])C=C2Oc3c(C(C)=O)c(O)c(C)c(O)c3C2(C)C1=O.CC(=O)C1=C([O-])C=C2Oc3c(C(C)=O)c(O)c(C)c(O)c3C2(C)C1=O.O.O.[Tb+3] (stereo not drawn) [TbL3·2H2O 6]	70.2	–	69.5	7520	2.3	17500	0.2	0.8	0.6	98.3	1.2	1.3	3.0	94.5	6.4	2.6	10.1	80.9	–
CC(=O)C1=C([O-])C=C2Oc3c(C(C)=O)c(O)c(C)c(O)c3C2(C)C1=O.CC(=O)C1=C([O-])C=C2Oc3c(C(C)=O)c(O)c(C)c(O)c3C2(C)C1=O.CC(=O)C1=C([O-])C=C2Oc3c(C(C)=O)c(O)c(C)c(O)c3C2(C)C1=O.O.O.O.O.[Sm+3] (stereo not drawn) [SmL3·4H2O 2]	43.5	41.7	45.7	5230	1260	20000	10.2	3.1	5.5	81.2	2.8	1.7	3.4	92.1	4.0	2.5	7.6	85.8	reduction in TMRE labeling (ΔΨm) ([1]; 48 h): 40.7%; reduction in viability ([4]; 24 h after treatment at IC50): 17.2%
CC(=O)C1=C([O-])C=C2Oc3c(C(C)=O)c(O)c(C)c(O)c3C2(C)C1=O.CC(=O)C1=C([O-])C=C2Oc3c(C(C)=O)c(O)c(C)c(O)c3C2(C)C1=O.CC(=O)C1=C([O-])C=C2Oc3c(C(C)=O)c(O)c(C)c(O)c3C2(C)C1=O.O.O.O.[Gd+3] (stereo not drawn) [GdL3·3H2O 3]	46.8	24.5	59.2	5520	1500	26500	0.4	0.7	0.6	98.4	12.7	2.4	6	78.8	3.2	2.6	7.4	86.8	reduction in TMRE labeling (ΔΨm) ([1]; 48 h): 36.2%; reduction in cell viability ([4]; 48 h after treatment at IC50): 17.4%
